The structures appear in SMILES notation. The source made the active and inactive calls. The rule behind the calls is not given here.

Data set [1] relates to Plasmodium yoelii nigeriensis. Put plainly: Antimalarial activity against chloroquine-, mefloquine-, halofantrine-resistant Plasmodium yoelii nigeriensis blood stream schizonts infected in Swiss mouse assessed as suppression of parasitemia at 24 mg/kg, im administered once daily for 4 days relative to control. Format: functional. The conditions noted are these: route intramuscular.

In data set [2] the test system is Plasmodium yoelii nigeriensis. Put plainly: Antimalarial activity against chloroquine-, mefloquine-, halofantrine-resistant Plasmodium yoelii nigeriensis blood stream schizonts infected in Swiss mouse assessed as disease cured mouse at 48 mg/kg, im administered once daily for 4 days measured on day 28. The class given is functional, organism-based. Details: dose 48 mg/kg.

For data set [3], the system named is Plasmodium yoelii nigeriensis. Description: Antimalarial activity against chloroquine-, mefloquine-, halofantrine-resistant Plasmodium yoelii nigeriensis blood stream schizonts infected in Swiss mouse assessed as suppression of parasitemia at 48 mg/kg, im administered once daily for 4 days relative to control. To be noted: route intramuscular. The class given is functional.

Data set [4] in a line: Drug degradation in aqueous NaHCO3 under ambient temperature within 48 hrs. The class given is physicochemical. To be noted: buffer.
The subject of data set [5] is Plasmodium yoelii nigeriensis. Put plainly: Antimalarial activity against chloroquine-, mefloquine-, halofantrine-resistant Plasmodium yoelii nigeriensis blood stream schizonts infected in Swiss mouse assessed as suppression of parasitemia at 12 mg/kg, im administered once daily for 4 days relative to control. The class given is functional. To be noted: route intramuscular.

Data set [6] can be described thus: Drug degradation in aqueous Na2CO3 under ambient temperature within 48 hrs. To be noted: buffer. Format: physicochemical.
Data set [7] has as its system Plasmodium yoelii nigeriensis. Put plainly: Antimalarial activity against chloroquine-, mefloquine-, halofantrine-resistant Plasmodium yoelii nigeriensis blood stream schizonts infected in Swiss mouse assessed as disease cured mouse at 12 mg/kg, im administered once daily for 4 days measured on day 28. Format: functional, organism-based. Details: dose 12 mg/kg.
Data set [8] is described as follows: Lipophilicity, log P of the compound. The class given is physicochemical. To be noted: octanol/water.
The test system of data set [9] is Plasmodium yoelii nigeriensis. Put plainly: Antimalarial activity against chloroquine-, mefloquine-, halofantrine-resistant Plasmodium yoelii nigeriensis blood stream schizonts infected in Swiss mouse assessed as disease cured mouse at 24 mg/kg, im administered once daily for 4 days measured on day 28. Format: functional, organism-based. Details: dose 24 mg/kg.

Data set [10] deals with Plasmodium yoelii nigeriensis. Description: Antimalarial activity against chloroquine-, mefloquine-, halofantrine-resistant Plasmodium yoelii nigeriensis infected in Swiss mouse assessed as protection from infection at 3 to 48 mg/kg, im administered once daily for 4 days measured on day 28 relative to artesunic acid. Format: functional. The conditions noted are these: dose mg/kg 3-48; route intramuscular.

The subject of data set [11] is Plasmodium yoelii nigeriensis. Description: Antimalarial activity against chloroquine-, mefloquine-, halofantrine-resistant Plasmodium yoelii nigeriensis blood stream schizonts infected in Swiss mouse assessed as suppression of parasitemia at 6 mg/kg, im administered once daily for 4 days relative to control. Format: functional. The conditions noted are these: route intramuscular.

In data set [12] the test system is Plasmodium yoelii nigeriensis. Description: Antimalarial activity against chloroquine-, mefloquine-, halofantrine-resistant Plasmodium yoelii nigeriensis blood stream schizonts infected in Swiss mouse assessed as disease cured mouse at 6 mg/kg, im administered once daily for 4 days measured on day 28. Format: functional, organism-based. Details: dose 6 mg/kg.

With `C[C@H]1[C@@H](OCCCCCCCCCCOC(=O)CCC(=O)O)O[C@@H]2O[C@@]3(C)CC[C@H]4[C@H](C)CC[C@@H]1[C@@]24OO3`, the Activity in data set [1] is given as 100%; in data set [3] it was 100%; in data set [5] it was 98.18%. Further, in data set [2], the result was Active. For the same compound, the Drug degradation result in data set [4] and in data set [6] was “Not Active” throughout. For the same compound, the result in data set [7] was inactive. In [8], the logP worked out at 5.95.
As to `C[C@H]1[C@@H](OCCCCCCCCCCCCOC(=O)CCC(=O)O)O[C@@H]2O[C@@]3(C)CC[C@H]4[C@H](C)CC[C@@H]1[C@@]24OO3`, the outcome in data set [9] and in data set [2] was Active. The Activity in data set [1] is reported as 100%; in data set [3] it was 100%; in [5] it was 71.27%; in data set [11], 57.09%. In addition, the “fold change (FC)” value in [10] is given as 2. The result in [7] and in data set [12] was inactive. In [8], the logP was 6.78.
For the compound `C[C@H]1[C@H](OC(=O)CCC(=O)O)O[C@@H]2O[C@@]3(C)CC[C@H]4[C@H](C)CC[C@@H]1[C@@]24OO3` [ARTESUNATE], the outcome in [9] and in data set [7] was inactive. Besides, the Activity in data set [1] worked out at 100%; in data set [3], 100%; in data set [5], 96.36%. Also, in data set [2], the result was Active. In addition, the Drug degradation result in data set [4] and in [6] was “Active” in each case.
